Measurements published in patent US20060241123A1, “Substituted piperidine and piperazine derivatives as melanocortin-4 receptor modulators” (priority 2003, published 2006).
Like-named read-outs stand apart in the source and are kept apart here. Values belong to the compound of their own block, whether it stands above or below them.

Legend:
melanocortin-4 receptor [1] = biological target: T1, melanocortin-4 receptor (Homo sapiens, UniProt P32245); conditions: cited from earlier work; for % stimulation: Bioorg. Med. Chem. Lett. 2003, 13, 3793-3796
T1 sequence (P32245 whole entry): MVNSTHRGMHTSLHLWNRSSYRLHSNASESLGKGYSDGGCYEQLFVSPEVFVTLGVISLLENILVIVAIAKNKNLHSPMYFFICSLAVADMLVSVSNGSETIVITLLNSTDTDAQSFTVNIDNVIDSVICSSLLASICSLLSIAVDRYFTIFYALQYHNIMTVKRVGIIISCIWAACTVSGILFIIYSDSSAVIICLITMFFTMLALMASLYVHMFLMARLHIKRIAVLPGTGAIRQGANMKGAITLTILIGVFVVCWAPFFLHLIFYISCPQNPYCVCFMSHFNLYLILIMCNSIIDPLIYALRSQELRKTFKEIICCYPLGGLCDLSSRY

melanocortin-4 receptor [2] = biological target: T1, melanocortin-4 receptor; conditions: cited from earlier work
male Wistar rats [3] = assay: Lipopolysaccharide-induced cachexia in rats (acute model); format: in vivo, rat
Description: Prevention or amelioration of cachexia induced by either lipopolysaccharide (LPS) administration or by tumor growth is determined upon i.p. or p.o. administration of test compounds to rats (see e.g. Marks, D. L.; Ling, N and Cone, R. D. Cancer Res 2001 Feb. 15; 61 (4): 1432-8).
1-2 Hours prior to the onset of the dark-phase, individually housed, male Wistar rats (200-300 g) receive an ip or po application of test-compound or vehicle (2 ml/kg, 1-30 mg/kg) which is followed or preceded by an ip injection of either lipopolysaccharide (LPS) or saline (2 ml/kg, 100 μg/kg). Food intake, water intake and body weight are measured at 1-24 hour intervals and differences between experimental groups are evaluated.

hMC4-R [4] = biological target: T2, hMC4-R (Homo sapiens, UniProt P32245); assay: Functional cellular cAMP assay, fluorescence polarization, HEK293 cells; format: cell-based; conditions: for % activation functional assay: compared to stimulation with NDP-alpha-MSH; for EC50: cAMP production
T2 construct: expressed in transfected cells; host or cells: HEK293 cells
T2 sequence (P32245 whole entry): as above
Description: A functional cellular assay, based on competition between unlabeled CAMP and a fixed quantity of fluorescence labeled cAMP for a limited number of binding sites on a cAMP specific antibody, is used to discriminate melanocortin receptor agonists from antagonists by fluorescence polarization.
HEK293 cells expressing one of the human melanocortin receptors are transferred to 384 well microtiter plates, an appropriate amount of cAMP antibody is added, followed by the addition of different concentrations of the test compound to effect cAMP production. Cells are lysed and a fluorescence labeled cAMP conjugate is dispensed. The plate is read on a fluorescence polarization microplate reader and the amount of cAMP produced as a response to a test compound is compared to the production of cAMP resulting from stimulation with NDP-alpha-MSH. […]

male Wistar rats [5] = assay: Spontaneous feeding paradigm, food intake in rats; format: in vivo, rat; conditions: for increase in cumulative food intake: compared to vehicle
Description: Food intake in rats is measured after i.p. or p.o. administration of the test compound (see e.g. Chen, A. S. et al. Transgenic Res 2000 April; 9(2):145-54).
Selected Examples of the present invention were active in the rat model at 3, 10 or 30 mg/kg after i.p. and p.o. administration of the test compound, respectively, using male Wistar rats (n=4−6).

hMC4-R [6] = biological target: T2, hMC4-R; assay: Membrane binding assay, fluorescence polarization, fluorescence labeled NDP-alpha-MSH; conditions: HEK293 cell membrane preparations
Description: A membrane binding assay is used to identify competitive inhibitors of fluorescence labeled NDP-alpha-MSH binding to HEK293 cell membrane preparations expressing human melanocortin receptors.
The test compound or unlabeled NDP-alpha-MSH is dispensed at varying concentrations to a 384 well microtiter plate. Fluorescence labeled NDP-alpha-MSH is dispensed at a single concentration, followed by addition of membrane preparations. The plate is incubated for 5 h at room temperature.
The degree of fluorescence polarization is determined with a fluorescence polarization microplate reader.

rat = conditions: i.v. or p.o.; WO0074679; cited from earlier work
[7] = J. Med. Chem. 2002, 45, 4589-4593; cited from earlier work
[8] = 3 mg/kg p.o., 4 hours following administration
[9] = 3 mg/kg p.o., 6 hours following administration
[10] = 3 mg/kg p.o., 7 hours following administration
[11] = read-out: EC50 activation of melanocortin-4 receptor, our assay system

SMILES: CS(=O)(=O)NCc1ccccc1N1CCN(C(=O)C(Cc2ccc(Cl)cc2)NC(=O)C2Cc3ccccc3CN2)CC1 (stereo not drawn) [WO02059108, example 56]
- EC50 (melanocortin-4 receptor [1]; J. Med. Chem. 2004, 47, 744-755, read-out: EC50 activation of melanocortin-4 receptor): 48 nM
- Ki (melanocortin-4 receptor [2]; J. Med. Chem. 2004, 47, 744-755): 210 nM

SMILES: CC(C)(C)NC(=O)C1(C2CCCCC2)CCN(C(=O)[C@@H](Cc2ccc(Cl)cc2)NC(=O)c2cc(=O)c3ccccc3o2)CC1 [Example 66]
- cumulative food intake in LPS-induced cachexia (male Wistar rats [3]; 10 mg/kg p.o.): significant increase in cumulative food intake
- increase in cumulative food intake (male Wistar rats [3]; 10 mg/kg p.o. in combination with LPS, 4 hours following administration, compared to LPS and vehicle): 148%
- activation of the melanocortin-4 receptor in the functional assay (hMC4-R [4]): no activation
- % activation functional assay (hMC4-R [4]): no activation
- food intake in spontaneous feeding paradigm (male Wistar rats [5]; 3 mg/kg p.o.): significant increase in food intake
- increase in cumulative food intake (male Wistar rats [5]; 3 mg/kg p.o., 2 hours following administration): 410%
- increase in cumulative food intake (male Wistar rats [5]; [8]): 500%
- increase in cumulative food intake (male Wistar rats [5]; [9]): 186%
- increase in cumulative food intake (male Wistar rats [5]; [10]): 272%
- IC50 (hMC4-R [6]): 6.8 nM

SMILES: CS(=O)(=O)N1CC2(CCN(C(=O)C[C@@H](Cc3ccc(Cl)cc3)NC(=O)[C@H]3Cc4ccccc4CN3)CC2)c2ccccc21.Cl [Example 212]
- increase in cumulative food intake (male Wistar rats [5]; 10 mg/kg i.p., 2 hours following administration): 708%
- increase in cumulative food intake (male Wistar rats [5]; 10 mg/kg i.p., 4 hours following administration): 725%
- increase in cumulative food intake (male Wistar rats [5]; 10 mg/kg i.p., 6 hours following administration): 224%
- increase in cumulative food intake (male Wistar rats [5]; 10 mg/kg i.p., 8 hours following administration): 167%

SMILES: CS(=O)(=O)NCc1ccccc1N1CCN(C(=O)[C@@H](Cc2ccc(Cl)cc2)NC(=O)c2cc(=O)c3ccccc3o2)CC1 [Example 110]
- activation of the melanocortin-4 receptor in the functional assay (hMC4-R [4]): does not activate
- % activation functional assay (hMC4-R [4]): no activation
- IC50 (hMC4-R [6]): 790 nM

SMILES: O=C(N[C@H](Cc1ccc(Cl)cc1)C(=O)N1CCC(Cn2cncn2)(C2CCCCC2)CC1)c1cc(=O)c2ccccc2o1 [Example 15]
- EC50 (hMC4-R [4]; read-out: hMC4-R functional assay EC50/nM): 700 nM
- % activation functional assay (hMC4-R [4]): 40%
- food intake in spontaneous feeding paradigm (male Wistar rats [5]; 3 mg/kg p.o.): significantly increase in food intake
- increase in cumulative food intake (male Wistar rats [5]; [8]): 290%
- increase in cumulative food intake (male Wistar rats [5]; [9]): 186%
- increase in cumulative food intake (male Wistar rats [5]; [10]): 355%
- IC50 (hMC4-R [6]): 4.4 nM

SMILES: CS(=O)(=O)N1CC2(CCN(C(=O)[C@@H](Cc3ccc(Cl)cc3)NC(=O)c3cc(=O)c4ccccc4o3)CC2)c2ccccc21 [Example 1]
- activation of the melanocortin-4 receptor in the functional assay (hMC4-R [4]): does not activate
- % activation functional assay (hMC4-R [4]): no activation
- IC50 (hMC4-R [6]): 80 nM

SMILES: CS(=O)(=O)Nc1ccccc1N1CCN(C(=O)[C@@H](Cc2ccc(Cl)cc2)NC(=O)c2cc(=O)c3ccccc3o2)CC1 [Example 8]
- activation of the melanocortin-4 receptor in the functional assay (hMC4-R [4]): does not activate
- % activation functional assay (hMC4-R [4]): no activation
- IC50 (hMC4-R [6]): 300 nM

SMILES: O=C(N[C@H](Cc1ccc(Cl)cc1)C(=O)N1CCN(c2ccccc2C(=O)N2CCCCC2)CC1)c1cc(=O)c2ccccc2o1 [Example 113]
- increase in cumulative food intake (male Wistar rats [5]; 30 mg/kg p.o., 2 hours following administration): 192%
- increase in cumulative food intake (male Wistar rats [5]; 30 mg/kg p.o., 4 hours following administration): 159%
- increase in cumulative food intake (male Wistar rats [5]; 30 mg/kg p.o., 6 hours following administration): 191%
- increase in cumulative food intake (male Wistar rats [5]; 30 mg/kg p.o., 7 hours following administration): 200%

The next lines start with results.

- EC50 (hMC4-R [4]; [11]): 3700 nM
- % activation functional assay (hMC4-R [4]): 96%
SMILES: CS(=O)(=O)Nc1ccccc1N1CCN(C(=O)[C@@H](Cc2ccc(Cl)cc2)NC(=O)[C@H]2Cc3ccccc3CN2)CC1 [WO03009850, example 1, reference compound]
- % stimulation (melanocortin-4 receptor [1]): 100%

- % activation functional assay (hMC4-R [4]): 102%
SMILES: O=C(NC(Cc1ccc(Cl)cc1)C(=O)N1CCC(Cn2cncn2)(C2CCCCC2)CC1)C1Cc2ccccc2CN1 (stereo not drawn) [WO0074679, example 2]
- in vivo activity in reflexogenic erections model (rat): in vivo agonist
- melanocortin-4 receptor activation (melanocortin-4 receptor [1]; at 10 μM, J. Med. Chem. 2002, 45, 4589-4593): activate the melanocortin-4 receptor
- food intake [7]: significantly reduced

- EC50 (hMC4-R [4]; [11]): 1100 nM
- % activation functional assay (hMC4-R [4]): 110%
- IC50 (hMC4-R [6]): 54 nM
SMILES: CS(=O)(=O)N1CC2(CCN(C(=O)[C@@H](Cc3ccc(Cl)cc3)NC(=O)[C@H]3Cc4ccccc4CN3)CC2)c2ccccc21 [WO9964002, example 13, reference compound]
- % stimulation (melanocortin-4 receptor [1]): 100%
- Ki (melanocortin-4 receptor [2]; Current Topics Med. Chem. 2003, 3, 855-883): 10 nM
